Laboratory results as given in patent US20240358721A1, “GASDERMIN-D INHIBITORS AND USES THEREOF FOR TREATING PULMONARY VASO-OCCLUSION” (UNIVERSITY OF PITTSBURGH-OF THE COMMONWEALTH SYSTEM OF …, priority 2021, published 2024).
“Also recorded” adds a separate entry of the source. Where a SMILES comes first, the peptide text is derived from it. The star is where a group is joined. Cbz = O=C(OCc1ccccc1)*; CH2F = FC*

Tested on: SCD mice
Test: qFILM assessment of pulmonary vaso-occlusion in SCD mice IV administered oxy-Hb
Format: in vivo, mouse
Conditions: LDC7559 10 mg/kg, Z-VAD-FMK 0.004 μmol/kg; for Number of PVOs per Field of View (#PVOs/FOV) / number of large PVOs (with area>1000 μm^2) per FOV: IV 10 μmole/kg oxy-Hb with inhibitor vs oxy-Hb alone; for Number of PVOs per Field of View (#PVOs/FOV) / number of large PVOs (with area>1000 μm^2) per FOV / blood flow in the lung (rapidly transiting erythrocytes) / lung vaso-occlusion in representative qFILM images: NSA 20 mg/kg; for blood flow in the lung (rapidly transiting erythrocytes) / lung vaso-occlusion in representative qFILM images / large neutrophil-platelet aggregates occluding the arteriolar bottle-necks in the lung: IV 10 μmole/kg oxy-Hb with inhibitor; for large neutrophil-platelet aggregates occluding the arteriolar bottle-necks in the lung: Necrosulfonamide 20 mg/kg
Source text: Quantitative fluorescence intravital lung microscopy (qFILM) was used to assess the absence or presence of platelet-neutrophil aggregate mediated pulmonary vaso-occlusion. Pulmonary microcirculation (pseudo-colored purple), neutrophils (red) and platelets (pseudo-colored green) were labeled in vivo by IV administration of FITC dextran, AF546-anti-Ly6G Ab and V450-anti-CD49b Ab, respectively. […] White arrows denote the direction of blood flow within the pulmonary arterioles. Alveoli are marked with asterisks. Scale bars 20 μm. The diameter of pulmonary arteriole in B-E is ˜22 μm, 32 μm, 31.5 μm, and 31 μm, respectively. […] Refer Online Data Supplement for details. […] The data for mice with SCD IV administered 10 oxy-Hb (n=5 mice; 75 FOVs) are included as black bars in FIGS. 1N and 1O for relative comparison. qFILM FOV size ˜65 536 μm^2. Data represent mean ±SE and are compared using Student t test. *P<0.05 (FIG. 1P) Schematic showing the main findings of the study. The sterile inflammatory milieu (DAMPs, IFN-I signaling, and ROS) in SCD promotes caspase-4 (humans) or caspase-11 (mouse)-dependent cleavage of neutrophil GSDMD into the active form GSDMD-NT, leading to the shedding of NETs in the liver microcirculation. Once shed, these NETs are carried by the blood as cNETs to the lung, where they promote neutrophil-platelet aggregation in the pulmonary arterioles, leading to PVO and lung injury (acute chest syndrome).
Intravital lung microscopy (experimental scheme shown in FIG. 1A) was conducted in live mice to assess whether preventing liver-to-lung embolization of cNETs by inhibiting or deleting GSDMD-signaling leads to amelioration of pulmonary vaso-occlusion. Although large neutrophil-platelet aggregates (marked with dotted ellipses) were seen occluding the arteriolar bottle-necks, leading to impaired blood flow in the lung of SCD mice IV administered 10 μmole/kg oxy-Hb (FIG. 1B), such aggregates were rare in the lung of SCD mice IV administered 10 μmole/kg oxy-Hb with 0.004 μmol/kg pan-caspase inhibitor Z-VAD-FMK (FIG. 1C) or 10 mg/kg GSDMD-NT inhibitor LDC7559 (FIG. 1D) or 20 mg/kg GSDMD-NT inhibitor Necrosulfonamide (FIG. 1E). […] The twofold higher dose of 20 μmole/kg IV oxy-Hb also led to the development of lung vaso-occlusion in WT but not Gsdmd^−/− mice (FIG. 2). […] P-selectin deficiency led to an approximately 50% reduction in pulmonary vaso-occlusion in SCD-Selp^−/− mice administered 10 μmole/kg IV oxy-Hb (FIG. 3), however, IV administration of oxy-Hb with GSDMD-NT inhibitor (LDC7559) led to further threefold (significant) reduction in pulmonary vaso-occlusions per FOV (FIGS. 1N and 4A, and FIG. 5) and absence of large pulmonary vaso-occlusions (area>1000 μm^2) per FOV (FIG. 10) in SCD-Selp^−/− mice.
Quantitative fluorescence intravital lung microscopy (qFILM) has been used widely for in vivo assessment of pulmonary vasoocclusion in mice with SCD [Bennewitz M F et al., (2017); Vats R, Brzoska T, Bennewitz M F, et al. (2020); Vats R, Tutuncuoglu E, Pradhan-Sundd T, Tejero J, Shaw G D, Sundd P. (2020); Bennewitz M F, Tutuncuoglu E, Gudapati S, et al. (2020)] In the current study, qFILM was used to assess pulmonary vaso-occlusion and detect NETs in the intact lung microcirculation of live mice following IV challenge with saline, oxy-hemoglobin (oxy-Hb), hemin, or lipo-polysaccharide with or without pretreatment with N-terminus active domain (GSDMD-NT) inhibitors LDC7559 [Sollberger G, Choidas A, Burn G L, et al. (2018)], NSA [Rathkey J K, Zhao J, Liu Z, et al. (2018)], Disulfiram [Hu J J, Liu X, Xia S, et al. (2020)], or the pan-caspase inhibitor Z-VAD-FMK [Sollberger G, Choidas A, Burn G L, et al. (2018)], haptoglobin [Belcher J D, Chen C, Nguyen J, et al. (2014)], or TLR4-inhibitor (TAK242) [Belcher J D, Chen C, Nguyen J, et al. (2014)]. qFILM was conducted with a Nikon multiphoton excitation fluorescence microscope and an APO LWD 25×water immersion objective with 1.1 NA. […]

SMILES	Number of PVOs per Field of View (#PVOs/FOV)	number of large PVOs (with area>1000 μm^2) per FOV	Number of PVOs per Field of View (#PVOs/FOV) (listed as NSA)	number of large PVOs (with area>1000 μm^2) per FOV (listed as NSA)	blood flow in the lung (rapidly transiting erythrocytes)	lung vaso-occlusion in representative qFILM images	lung vaso-occlusion in representative qFILM images (listed as NSA)	large neutrophil-platelet aggregates occluding the arteriolar bottle-necks in the lung
COc1nccnc1NS(=O)(=O)c1ccc(NC(=O)/C=C/c2ccc([N+](=O)[O-])s2)cc1 [Necrosulfonamide, necrosulfonamide]	significantly reduced	significantly reduced	significantly less	significantly less	significantly improved	lack of pulmonary vaso-occlusion	absence of lung vaso-occlusion	rare
COC(=O)C[C@H](NC(=O)[C@H](C)NC(=O)[C@@H](NC(=O)OCc1ccccc1)C(C)C)C(=O)CF [Z-VAD-FMK] (Cbz-Val-Ala-Asp(OMe)-CH2F)	significantly less; also recorded: significantly reduced	significantly less; also recorded: significantly reduced	–	–	significantly improved	absence of lung vaso-occlusion; also recorded: lack of pulmonary vaso-occlusion	–	rare
